According to PubChem BioAssay (NCI):
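Grown in 96-well plates, cells were treated for 48 hours with each compound at five concentrations. Insufficient inhibition: endpoint recorded as highest concentration tested. GI50: concentration for 50% inhibition of growth. Definition used: TGI = concentration required for complete inhibition of growth.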

Columns and labels:
Test in all cases: NCI-60 cell line screen, 48 h
HCC-2998 colon = test system: HCC-2998 colon
UO-31 renal = test system: UO-31 renal
OVCAR-8 ovarian = test system: OVCAR-8 ovarian
EKVX NSCLC = test system: EKVX NSCLC
MOLT-4 leukemia = test system: MOLT-4 leukemia
HOP-62 NSCLC = test system: HOP-62 NSCLC
M14 melanoma = test system: M14 melanoma
HCT-15 colon = test system: HCT-15 colon
NCI-H226 lung = test system: NCI-H226 lung
UACC-257 melanoma = test system: UACC-257 melanoma
SK-MEL-5 melanoma = test system: SK-MEL-5 melanoma
RXF 393 renal = test system: RXF 393 renal

## C[C@H]1C(=O)O[C@@H]2CCN3CC=C(COC(=O)[C@](C)(O)[C@@]1(C)O)[C@H]23
HCC-2998 colon
  TGI: > 100 µM
UO-31 renal
  TGI: > 100 µM
OVCAR-8 ovarian
  TGI: > 100 µM
EKVX NSCLC
  TGI: > 100 µM
MOLT-4 leukemia
  TGI: > 100 µM
HOP-62 NSCLC
  TGI: > 100 µM
M14 melanoma
  TGI: > 100 µM
HCT-15 colon
  TGI: > 100 µM
NCI-H226 lung
  TGI: > 100 µM
UACC-257 melanoma
  TGI: > 100 µM
SK-MEL-5 melanoma
  TGI: > 100 µM

## CC(=O)NNc1nc(-c2ccc([N+](=O)[O-])cc2)c(C#N)c(=O)n1C
RXF 393 renal
  TGI: > 100 µM
UO-31 renal
  TGI: > 100 µM
OVCAR-8 ovarian
  TGI: 89.3 µM
EKVX NSCLC
  TGI: > 100 µM
MOLT-4 leukemia
  TGI: > 100 µM
HOP-62 NSCLC
  TGI: 52.5 µM
M14 melanoma
  TGI: > 100 µM
HCT-15 colon
  TGI: > 100 µM
UACC-257 melanoma
  TGI: > 100 µM
SK-MEL-5 melanoma
  TGI: > 100 µM

## CN(C)C(=O)/C=C/c1c[nH]c(=O)[nH]c1=O
HCC-2998 colon
  TGI: > 500 µM
RXF 393 renal
  TGI: > 500 µM
UO-31 renal
  TGI: > 500 µM
OVCAR-8 ovarian
  TGI: > 500 µM
EKVX NSCLC
  TGI: > 281 µM
MOLT-4 leukemia
  TGI: > 500 µM
HOP-62 NSCLC
  TGI: > 500 µM
HCT-15 colon
  TGI: > 500 µM
NCI-H226 lung
  TGI: > 500 µM
UACC-257 melanoma
  TGI: > 500 µM
SK-MEL-5 melanoma
  TGI: > 500 µM

## COc1ccc(C2=C3SC=c4ccccc4=C3ON=C2c2ccccc2)cc1
HCC-2998 colon
  TGI: > 100 µM
RXF 393 renal
  TGI: > 100 µM
UO-31 renal
  TGI: > 100 µM
OVCAR-8 ovarian
  TGI: > 100 µM
EKVX NSCLC
  TGI: > 100 µM
MOLT-4 leukemia
  TGI: > 100 µM
HOP-62 NSCLC
  TGI: > 100 µM
M14 melanoma
  TGI: > 100 µM
HCT-15 colon
  TGI: > 100 µM
NCI-H226 lung
  TGI: > 100 µM
UACC-257 melanoma
  TGI: > 100 µM
SK-MEL-5 melanoma
  TGI: > 100 µM

## Cc1cccc2c1Sc1ccccc1C2NC(=O)CCN(C)C (configuration not stated)
HCC-2998 colon
  TGI: > 100 µM
RXF 393 renal
  TGI: > 100 µM
UO-31 renal
  TGI: > 100 µM
OVCAR-8 ovarian
  TGI: > 100 µM
EKVX NSCLC
  TGI: > 100 µM
MOLT-4 leukemia
  TGI: > 100 µM
HOP-62 NSCLC
  TGI: > 100 µM
M14 melanoma
  TGI: > 100 µM
HCT-15 colon
  TGI: > 100 µM
NCI-H226 lung
  TGI: > 100 µM
UACC-257 melanoma
  TGI: > 100 µM
SK-MEL-5 melanoma
  TGI: > 100 µM

## O=C(Nc1ccc([N+](=O)[O-])cc1[N+](=O)[O-])C(=O)C(C(=O)c1ccc2ccccc2c1)C1OC(=O)c2ccccc21 (configuration not stated)
HCC-2998 colon
  TGI: 25 µM
RXF 393 renal
  TGI: 27.3 µM
UO-31 renal
  TGI: 27.7 µM
OVCAR-8 ovarian
  TGI: 21.6 µM
EKVX NSCLC
  TGI: 48 µM
MOLT-4 leukemia
  TGI: 62.2 µM
HOP-62 NSCLC
  TGI: 68.4 µM
M14 melanoma
  TGI: 30.3 µM
HCT-15 colon
  TGI: 30.7 µM
NCI-H226 lung
  TGI: 9.48 µM
UACC-257 melanoma
  TGI: 58 µM
SK-MEL-5 melanoma
  TGI: 31.6 µM

## CN(C)CCNC(=O)c1cccc2ccc(-c3ccc(F)cc3)nc12
HCC-2998 colon
  TGI: 19.3 µM
RXF 393 renal
  TGI: 20.4 µM
UO-31 renal
  TGI: 11.4 µM
OVCAR-8 ovarian
  TGI: 15.8 µM
MOLT-4 leukemia
  TGI: 7.03 µM
HOP-62 NSCLC
  TGI: 27.8 µM
HCT-15 colon
  TGI: 16.1 µM
NCI-H226 lung
  TGI: 11.6 µM
UACC-257 melanoma
  TGI: 17.9 µM
SK-MEL-5 melanoma
  TGI: 11.1 µM

## COc1cc(C2CC(c3cccc(Nc4ccncc4)c3)=NN2c2ccc(Cl)cc2)cc(OC)c1OC (configuration not stated)
HCC-2998 colon
  GI50: 1.54 µM
  TGI: 2.91 µM
UO-31 renal
  GI50: 1.15 µM
  TGI: 2.37 µM
EKVX NSCLC
  GI50: 1.46 µM
  TGI: 2.88 µM
HCT-15 colon
  GI50: 1.7 µM
  TGI: 3.28 µM
NCI-H226 lung
  GI50: 1.66 µM
  TGI: 3.59 µM
UACC-257 melanoma
  GI50: 1.96 µM
  TGI: 3.84 µM
SK-MEL-5 melanoma
  GI50: 1.75 µM
  TGI: 3.14 µM

## N=C1C(=N)c2ccccc2-c2ccccc21.N=C1C(=N)c2ccccc2-c2ccccc21.N=C1C(=N)c2ccccc2-c2ccccc21.[Cl-].[Ru+2]
HCC-2998 colon
  TGI: > 31.6 µM
RXF 393 renal
  TGI: 5.58 µM
UO-31 renal
  TGI: 4.71 µM
OVCAR-8 ovarian
  TGI: 3.14 µM
EKVX NSCLC
  TGI: 3.41 µM
MOLT-4 leukemia
  TGI: 5.46 µM
HOP-62 NSCLC
  TGI: 8.97 µM
M14 melanoma
  TGI: 3.72 µM
UACC-257 melanoma
  TGI: 3.53 µM
SK-MEL-5 melanoma
  GI50: 1.91 µM
  TGI: 3.71 µM

## O=P1(c2ccccc2)Nc2ccccc2SSc2ccccc2N1
HCC-2998 colon
  TGI: 37.6 µM
RXF 393 renal
  TGI: 34.5 µM
UO-31 renal
  TGI: 27.2 µM
OVCAR-8 ovarian
  TGI: 37.2 µM
EKVX NSCLC
  TGI: 33.4 µM
MOLT-4 leukemia
  TGI: 49.9 µM
HCT-15 colon
  TGI: 35.8 µM
NCI-H226 lung
  TGI: 33.4 µM
UACC-257 melanoma
  TGI: 30.3 µM
SK-MEL-5 melanoma
  TGI: 31.6 µM

## COc1ccc2c(c1)CCCN2CCCCCCCCCCN(CCC(C)C)CCC(C)C
HCC-2998 colon
  TGI: 19.2 µM
UO-31 renal
  TGI: 10.2 µM
EKVX NSCLC
  TGI: 20 µM
MOLT-4 leukemia
  TGI: 22.6 µM
HOP-62 NSCLC
  TGI: 26.1 µM
M14 melanoma
  TGI: 27.2 µM
HCT-15 colon
  TGI: 23.4 µM
NCI-H226 lung
  TGI: 31.3 µM
UACC-257 melanoma
  TGI: 32.5 µM
SK-MEL-5 melanoma
  TGI: 18.9 µM

## COc1ccc(/C(Cl)=C(\C=O)c2ccc(OC)cc2)cc1
HCC-2998 colon
  TGI: > 100 µM
RXF 393 renal
  TGI: > 100 µM
UO-31 renal
  TGI: > 100 µM
OVCAR-8 ovarian
  TGI: > 100 µM
EKVX NSCLC
  TGI: > 100 µM
MOLT-4 leukemia
  TGI: > 100 µM
HOP-62 NSCLC
  TGI: > 100 µM
M14 melanoma
  TGI: > 100 µM
HCT-15 colon
  TGI: > 100 µM
NCI-H226 lung
  TGI: > 100 µM
UACC-257 melanoma
  TGI: > 100 µM
SK-MEL-5 melanoma
  TGI: > 100 µM

## CCCOC(=O)CNC(=O)OC(C)(C)C
HCC-2998 colon
  TGI: > 100 µM
RXF 393 renal
  TGI: > 100 µM
UO-31 renal
  TGI: > 100 µM
OVCAR-8 ovarian
  TGI: > 100 µM
EKVX NSCLC
  TGI: > 100 µM
HOP-62 NSCLC
  TGI: > 100 µM
M14 melanoma
  TGI: > 100 µM
HCT-15 colon
  TGI: > 100 µM
NCI-H226 lung
  TGI: > 100 µM
UACC-257 melanoma
  TGI: > 100 µM
SK-MEL-5 melanoma
  TGI: > 100 µM

## NCCc1cc(O)c(O)cc1O
HCC-2998 colon
  TGI: > 100 µM
RXF 393 renal
  TGI: 97.5 µM
UO-31 renal
  TGI: 51.2 µM
OVCAR-8 ovarian
  TGI: > 53.6 µM
EKVX NSCLC
  TGI: 65.9 µM
MOLT-4 leukemia
  TGI: 70.7 µM
HOP-62 NSCLC
  TGI: 45 µM
M14 melanoma
  TGI: 92.5 µM
HCT-15 colon
  TGI: 44.5 µM
NCI-H226 lung
  GI50: 29.6 µM
  TGI: > 100 µM
UACC-257 melanoma
  TGI: 62.1 µM
SK-MEL-5 melanoma
  TGI: 38.6 µM

## CCOC(=O)c1c2c(n(Cc3ccccc3)c1C)C(=O)C(=O)c1ccccc1-2
HCC-2998 colon
  TGI: 1.17 µM
UO-31 renal
  TGI: > 100 µM
OVCAR-8 ovarian
  TGI: 1.07 µM
EKVX NSCLC
  TGI: 1.74 µM
MOLT-4 leukemia
  TGI: 1.8 µM
HOP-62 NSCLC
  TGI: 0.536 µM
M14 melanoma
  TGI: 0.966 µM
HCT-15 colon
  TGI: 2.58 µM
NCI-H226 lung
  TGI: 1.22 µM
UACC-257 melanoma
  TGI: 0.285 µM
SK-MEL-5 melanoma
  TGI: 0.742 µM

## Nc1n[nH]c(=O)c2c1c(I)cn2C1OC(CO)C(O)C1O (configuration not stated)
HCC-2998 colon
  TGI: 7.45 µM
RXF 393 renal
  TGI: 3.22 µM
UO-31 renal
  TGI: 5.86 µM
OVCAR-8 ovarian
  TGI: 1.44 µM
EKVX NSCLC
  TGI: 7.85 µM
MOLT-4 leukemia
  TGI: 2.29 µM
HOP-62 NSCLC
  TGI: 21.5 µM
M14 melanoma
  TGI: 18.8 µM
HCT-15 colon
  TGI: 3.05 µM
NCI-H226 lung
  TGI: 7.6 µM
UACC-257 melanoma
  TGI: 13.4 µM
SK-MEL-5 melanoma
  TGI: 13.6 µM
